Earlier results in patent EP4789665A1, “TREATMENT OF HIS HYPORESPONDERS” (NewAmsterdam Pharma B.V., priority 2021, dated 2023).

Assays:
CETP [1] = target: T1, CETP (Homo sapiens, UniProt P11597); details: in vivo; cited from earlier work
T1 construct: endogenous in cells; host or cells: trial patients (in vivo, circulating plasma CETP)
T1 sequence (P11597 18-493): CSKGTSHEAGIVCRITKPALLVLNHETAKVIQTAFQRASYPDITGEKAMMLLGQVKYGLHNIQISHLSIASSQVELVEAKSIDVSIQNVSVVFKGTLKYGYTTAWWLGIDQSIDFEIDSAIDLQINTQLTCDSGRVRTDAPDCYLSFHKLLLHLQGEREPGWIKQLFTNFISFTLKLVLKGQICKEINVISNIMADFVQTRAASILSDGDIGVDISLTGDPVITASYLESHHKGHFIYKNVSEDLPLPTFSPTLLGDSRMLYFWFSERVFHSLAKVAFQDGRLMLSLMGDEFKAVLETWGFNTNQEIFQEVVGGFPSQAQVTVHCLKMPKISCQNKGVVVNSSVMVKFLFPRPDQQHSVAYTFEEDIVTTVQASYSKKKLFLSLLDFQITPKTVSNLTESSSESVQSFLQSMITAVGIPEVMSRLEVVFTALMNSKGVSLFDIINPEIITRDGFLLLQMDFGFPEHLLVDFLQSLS

HMG CoA reductase = target: T2, HMG CoA reductase (Homo sapiens, UniProt P04035); details: rosuvastatin 20 mg; JUPITER secondary analysis; cited from earlier work
T2 construct: host or cells: patients of the JUPITER study (in vivo)
T2 sequence (P04035 1-888): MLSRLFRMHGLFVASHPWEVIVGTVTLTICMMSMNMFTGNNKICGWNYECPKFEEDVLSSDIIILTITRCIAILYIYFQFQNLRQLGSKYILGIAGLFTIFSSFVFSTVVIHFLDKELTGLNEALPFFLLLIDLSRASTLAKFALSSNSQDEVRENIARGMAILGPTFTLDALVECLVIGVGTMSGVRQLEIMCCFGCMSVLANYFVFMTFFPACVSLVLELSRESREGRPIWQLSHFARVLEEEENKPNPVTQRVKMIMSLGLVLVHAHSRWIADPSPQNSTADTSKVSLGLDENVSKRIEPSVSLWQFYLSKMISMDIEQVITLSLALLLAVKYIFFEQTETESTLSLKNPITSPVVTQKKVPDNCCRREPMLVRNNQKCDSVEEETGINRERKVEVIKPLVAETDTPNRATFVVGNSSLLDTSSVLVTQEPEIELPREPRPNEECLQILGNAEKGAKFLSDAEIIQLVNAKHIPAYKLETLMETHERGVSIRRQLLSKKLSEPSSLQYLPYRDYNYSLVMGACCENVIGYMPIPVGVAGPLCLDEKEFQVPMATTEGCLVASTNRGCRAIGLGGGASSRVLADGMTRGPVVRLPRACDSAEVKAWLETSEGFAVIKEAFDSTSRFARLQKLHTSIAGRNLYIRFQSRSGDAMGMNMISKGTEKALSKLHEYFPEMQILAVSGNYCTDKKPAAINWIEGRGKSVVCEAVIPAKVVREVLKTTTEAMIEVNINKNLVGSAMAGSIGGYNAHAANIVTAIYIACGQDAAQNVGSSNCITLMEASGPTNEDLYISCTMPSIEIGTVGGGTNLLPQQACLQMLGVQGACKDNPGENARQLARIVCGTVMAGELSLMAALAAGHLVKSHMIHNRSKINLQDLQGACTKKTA

CETP [2] = target: T1, CETP; details: in combination with atorvastatin; cited from earlier work

In the case of `CCC(CC)CC1(C(=O)Nc2ccccc2SC(=O)C(C)C)CCCCC1` [dalcetrapib], the “effects on LDL-C concentrations” value (CETP [1]) is listed as “minimal effects on LDL-C concentrations” and the “increased HDL-C by” value (CETP [1]) is listed as 30-40%.

For `CC(C)c1nc(N(C)S(C)(=O)=O)nc(-c2ccc(F)cc2)c1/C=C/[C@@H](O)C[C@@H](O)CC(=O)O` [rosuvastatin], the “median LDL-C lowering response” value (HMG CoA reductase) is given as 50%.

In the case of `CCOC(=O)N1c2ccc(C(F)(F)F)cc2[C@@H](N(Cc2cc(C(F)(F)F)cc(C(F)(F)F)c2)C(=O)OC)C[C@H]1CC` [torcetrapib], the “cardiovascular events and death” value (CETP [2]) is given as “unexpected increase in cardiovascular events and death”.
